The text below walks through data of patent publication US20060089390A1, “3-benzoyl-2,4,5-substituted pyridine derivatives or salts thereof and bactericides containing the same” (Ishihara Sangyo Kaisha, Ltd., priority 2002, published 2006).

For orientation: melting point means the temperature of the solid-liquid transition.

Molecules are shown by their SMILES. Like-named read-outs stand apart in the source and are kept apart here.

One series relates to rice blast. Kind of series: whole plant or invertebrate. It counts as in vivo, Rice (cultivar: Nihonbare). The following applies: Pyricularia oryzae, foliar, read-out: controlling effects as compared with non-treated cases (number of lesions).
For series [1], the system named is cucumber powdery mildew. Kind of series: Test on preventive effect against cucumber powdery mildew. In kind it is in vivo, Cucumber (cultivar: Suyo). The settings on record: Cucumis sativus, foliar spray before inoculation, examined 6 to 11 days after inoculation, read-out: controlling effects as compared with non-treated cases (area of sporogony). The method, then: Test on Preventive Effect Against Cucumber Powdery Mildew Cucumber (cultivar: […] After the drug solution dried, the cucumber was sprayed and inoculated with a conidiospore suspension of fungi of powdery mildew, and the cucumber was kept in a thermostatic chamber at 20° C. From 6 to 11 days after the inoculation, the area of sporogony was examined.

Series [2] relates to cucumber powdery mildew. Kind of series: Test on rainfastness of effect against cucumber powdery mildew. In kind it is in vivo, Cucumber (cultivar: Suyo). The settings on record: Cucumis sativus, topical, 500 gai/ha. On the procedure:
Cucumber (cultivar: […] A day after the treatment, 10 mm/hr of artificial rainfall was applied for 1 hour. Together with seedlings not subjected to rainfall treatment (preventive), the cucumber was sprayed and inoculated with a conidiospore suspension of fungi of powdery mildew, and the cucumber was kept in a thermostatic chamber at 20° C. From 6 to 11 days after the inoculation, the number of lesions was examined, and the controlling rate was calculated by comparison with the non-treated cases. The results are shown in Table 5.

The test system of another series is wheat powdery mildew. Kind of series: Test on preventive effect against wheat powdery mildew. The following applies: Triticum aestivum, foliar spray before inoculation, examined 6 to 8 days after inoculation, read-out: controlling effects as compared with non-treated cases (area of sporogony). In kind it is in vivo, Wheat (cultivar: Norin-61-go). The method, then: Tests on Preventive Effect Against Wheat Powdery Mildew Wheat (cultivar: […] After the drug solution dried, the wheat was inoculated by spreading with conidiospore of fungi of powdery mildew, and the wheat was kept in a thermostatic chamber at 20° C. From 6 to 8 days after the inoculation, the area of sporogony was examined.

Where [3] appears, read: 10 mm/hr artificial rainfall for 1 hour a day after treatment, read-out: Controlling rate of cucumber powdery mildew (%) Rainfall.
The mark [4] stands for this setting: no rainfall treatment (preventive), read-out: Controlling rate of cucumber powdery mildew (%) Preventive.

`COc1cc(C)c(C(=O)c2c(OC)ncc(Cl)c2Br)c(OC)c1OC` [Compound No. 1-1, 3-(2,3,4-trimethoxy-6-methylbenzoyl)-4-bromo-5-chloro-2-methoxypyridine] yielded a melting point of 92 to 94 °C. In addition, the pest or weed control at 500 ppm in the series on rice blast was at least 90%. Further, in the series on cucumber powdery mildew [1], the pest or weed control at 125 ppm is at least 90%. Also, in the series on cucumber powdery mildew [2] (setting [3]), the pest or weed control at 500 g/ha was found to be 100%. Moreover, the pest or weed control at 500 g/ha with cucumber powdery mildew [2] (setting [4]) is 100%. Besides, the pest or weed control at 125 ppm in the series on wheat powdery mildew is at least 90%.
`COc1cc(C)c(C(=O)c2c(Cl)ncc(C)c2Cl)c(OC)c1OC` [1-16, 3-(2,3,4-trimethoxy-6-methylbenzoyl)-2,4-dichloro-5-methylpyridine]: the melting point is 78 to 80 °C. Besides, the pest or weed control at 500 ppm in the series with rice blast was at least 90%. Besides, the pest or weed control at 125 ppm with cucumber powdery mildew [1] is at least 90%. The pest or weed control at 125 ppm with wheat powdery mildew is at least 90%.
As to `COc1cc(C)c(C(=O)c2c(OC)ncc(Cl)c2OC)c(OC)c1OC` [1-11, 3-(2,3,4-trimethoxy-6-methylbenzoyl)-5-chloro-2,4-dimethoxypyridine], the melting point lay within 93 to 94 °C. Moreover, in the series on cucumber powdery mildew [1], the pest or weed control at 125 ppm is at least 90%. Besides, the pest or weed control at 125 ppm with wheat powdery mildew is at least 90%.
The molecule `COc1cc(C)c(C(=O)c2c(OC)ncc(Cl)c2Cl)c(OC)c1OC` [Compound No. 1-15, 3-(2,3,4-trimethoxy-6-methylbenzoyl)-4,5-dichloro-2-methoxypyridine] registered a melting point of 84 to 86 °C. The pest or weed control at 500 ppm in the series on rice blast was at least 90%. In addition, the pest or weed control at 125 ppm in the series on cucumber powdery mildew [1] was at least 90%. Also, the pest or weed control at 500 g/ha in the series on cucumber powdery mildew [2] (setting [3]) stood at 100%. The pest or weed control at 500 g/ha with cucumber powdery mildew [2] (setting [4]) worked out at 100%. Moreover, the pest or weed control at 125 ppm with wheat powdery mildew was at least 90%.
`COc1cc(C)c(C(=O)c2c(F)ncc(C)c2C)c(OC)c1OC` [1-19, 3-(2,3,4-trimethoxy-6-methylbenzoyl)-2-fluoro-4,5-dimethylpyridine] gave a melting point of 91 to 92 °C. Also, in the series on wheat powdery mildew, the pest or weed control at 125 ppm is at least 90%.
